Test [1] in a line: Compound tested for the inhibition of ADP-ribosylation in protein synthesis; Inactive. The test is classed as functional.
Test [2] is described as follows: Compound tested for the inhibition of IMP-dehydrogenase causing a profound depletion of GMP anf accumulation of IMP; Active. The test is classed as functional.
A further test deals with CCRF-CEM. The experiment in a line: In vitro inhibitory activity against the growth of CCRF-CEM tumor cells at a concentration of 13.0 ug/mL; Inactive. It counts as functional, cell-based. To be noted: Homo sapiens.
In a further test the test system is MOLT-3. The experiment in a line: In vitro inhibitory activity against the growth of F-Molt-3 tumor cells at a concentration of 15.0 ug/mL; Inactive. It counts as functional, cell-based. To be noted: Homo sapiens.
For a further test, the system named is P815. The test can be described thus: In vitro inhibitory activity against the growth of P-815 tumor cells at a concentration of 16.0 ug/mL; Inactive. It counts as functional, cell-based. Conditions: Mus musculus.
The next test deals with HL-60. The test can be described thus: In vitro inhibitory activity against the growth of HL-60 tumor cells at a concentration of 24.0 ug/mL; Inactive. The test is classed as functional, cell-based. Conditions: Homo sapiens.

Structures are written as SMILES. Activity calls are given as the source filed them. The calls are words filed in the database; no cut-off is given here.

Consider `C[n+]1cc(C(N)=O)cc([C@@H]2O[C@H](COP(=O)([O-])OP(=O)(O)OC[C@@H]3O[C@H](n4cnc5c(N)ncnc54)[C@@H](O)[C@H]3O)[C@@H](O)[C@H]2O)c1`, for which, in test [1], the result was inactive. As for `NC(=O)c1cncc([C@@H]2O[C@H](COP(=O)(O)OP(=O)(O)OC[C@@H]3O[C@H](n4cnc5c(N)ncnc54)[C@@H](O)[C@H]3O)[C@@H](O)[C@H]2O)c1`, in test [1], the result was inactive. `NC(=O)c1csc([C@@H]2O[C@H](CO)[C@@H](O)[C@H]2O)n1`: in test [2], the outcome was Active. For `NC(=O)c1csc([C@H]2O[C@@H](COP(=O)(O)OP(=O)(O)OC[C@H]3O[C@@H](n4cnc5c(N)ncnc54)[C@H](O)[C@@H]3O)[C@H](O)[C@@H]2O)n1`, in test [2], the outcome was Active.

Turning to `C[n+]1cc(C(N)=O)cc(C2O[C@H](CO)[C@@H](O)[C@H]2O)c1` (single isomer, unassigned), the inhibition entry in the test with CCRF-CEM, in the test with MOLT-3, in the test with P815 and in the test on HL-60 was “inactive” in each case.

Values taken from ChEMBL document CHEMBL1123746, “Synthesis of 5-beta-D-ribofuranosylnicotinamide and its N-methyl derivative. The isosteric and isoelectronic analogues of nicotinamide nucleoside” (1987).
